The results in this text go back to the supplement of paper PMC10307832.

What all share (test): relative viability (nuclei count vs DMSO), 5 days (fraction); higher = more cells survive
Compound in assay [1]: CC[C@H](C)N1C=C(C2=C(C=C(C=C21)C3=CN=C(C=C3)N4CCNCC4)C(=O)NCC5=C(C=C(NC5=O)C)C)C [GSK126] + C[C@@H](Oc1cc(-c2cnn(C3CCNCC3)c2)cnc1N)c1c(Cl)ccc(F)c1Cl [Crizotinib] (partner 1 µM)
The method, boiled down:
(§1)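 Lung cancer cell lines were pin-tool dosed in 1536-well plates on the day after seeding, with either a lone drug or a fixed anchor-drug dose plus five library-drug doses (not always all listed) in √10 steps. Nuclei were counted on 4× images after 5 days. Relative viability is the ratio of treated-well to vehicle-well nuclei counts, with each value a median of duplicate plates.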

Compound in assay [2]: C1CC(C1)(C(=O)O)C(=O)O.[NH2-].[NH2-].[Pt+2] [Carboplatin] + Cc1nc(NC(=O)N2CCC[C@H]2C(N)=O)sc1-c1ccnc(C(C)(C)C(F)(F)F)c1 [Alpelisib] (partner 2 µM)
The method, boiled down: as §1

Compound in assay [3]: NS(=O)(=O)OC[C@@H]1C[C@@H](n2ccc3c(N[C@H]4CCc5ccccc54)ncnc32)C[C@@H]1O [MLN4924] + CC1(C)CCC(c2ccc(Cl)cc2)=C(CN2CCN(c3ccc(C(=O)NS(=O)(=O)c4ccc(N[C@H](CCN5CCOCC5)CSc5ccccc5)c(S(=O)(=O)C(F)(F)F)c4)cc3)CC2)C1 [Navitoclax] (partner 0.5 µM)
The method, boiled down: as §1

Compound in assay [4]: CC[C@H](C)N1C=C(C2=C(C=C(C=C21)C3=CN=C(C=C3)N4CCNCC4)C(=O)NCC5=C(C=C(NC5=O)C)C)C [GSK126] + Nc1nc2[nH]cc(CCc3ccc(C(=O)N[C@@H](CCC(=O)O)C(=O)O)cc3)c2c(=O)[nH]1 [Pemetrexed] (partner 0.2 µM)
The method, boiled down:
as §1

Consider UMC-11, for which the relative viability was 0.723 in assay [1] (first compound 0.08 µM); 0.689 in assay [1] (first compound 0.253 µM); 0.604 in assay [1] (first compound 0.8 µM); 0.523 in assay [1] (first compound 2.53 µM); 0.525 in assay [1] (first compound 8 µM); 1 in assay [2] (first compound 0.08 µM). Further, the relative viability amounted to 0.96 in assay [2] (first compound 0.253 µM); 0.827 in assay [2] (first compound 0.8 µM); 0.955 in assay [2] (first compound 2.53 µM); 0.588 in assay [2] (first compound 8 µM); 0.198 in assay [3] (first compound 0.04 µM); 0.142 in assay [3] (first compound 0.1265 µM). Further, the relative viability was found to be 0.167 in assay [3] (first compound 0.4 µM); 0.1 in assay [3] (first compound 1.265 µM); 0.112 in assay [3] (first compound 4 µM); 0.841 in assay [4] (first compound 0.08 µM); 0.749 in assay [4] (first compound 0.253 µM); 0.756 in assay [4] (first compound 0.8 µM). The relative viability in assay [4] (first compound 2.53 µM) turned out to be 0.744; in assay [4] (first compound 8 µM), 0.831.
